The experiment deals with T1, HiBit tagged KAT6A (Homo sapiens, UniProt Q92794).
T1 construct: host or cells: HeLa
T1 sequence (Q92794 whole entry): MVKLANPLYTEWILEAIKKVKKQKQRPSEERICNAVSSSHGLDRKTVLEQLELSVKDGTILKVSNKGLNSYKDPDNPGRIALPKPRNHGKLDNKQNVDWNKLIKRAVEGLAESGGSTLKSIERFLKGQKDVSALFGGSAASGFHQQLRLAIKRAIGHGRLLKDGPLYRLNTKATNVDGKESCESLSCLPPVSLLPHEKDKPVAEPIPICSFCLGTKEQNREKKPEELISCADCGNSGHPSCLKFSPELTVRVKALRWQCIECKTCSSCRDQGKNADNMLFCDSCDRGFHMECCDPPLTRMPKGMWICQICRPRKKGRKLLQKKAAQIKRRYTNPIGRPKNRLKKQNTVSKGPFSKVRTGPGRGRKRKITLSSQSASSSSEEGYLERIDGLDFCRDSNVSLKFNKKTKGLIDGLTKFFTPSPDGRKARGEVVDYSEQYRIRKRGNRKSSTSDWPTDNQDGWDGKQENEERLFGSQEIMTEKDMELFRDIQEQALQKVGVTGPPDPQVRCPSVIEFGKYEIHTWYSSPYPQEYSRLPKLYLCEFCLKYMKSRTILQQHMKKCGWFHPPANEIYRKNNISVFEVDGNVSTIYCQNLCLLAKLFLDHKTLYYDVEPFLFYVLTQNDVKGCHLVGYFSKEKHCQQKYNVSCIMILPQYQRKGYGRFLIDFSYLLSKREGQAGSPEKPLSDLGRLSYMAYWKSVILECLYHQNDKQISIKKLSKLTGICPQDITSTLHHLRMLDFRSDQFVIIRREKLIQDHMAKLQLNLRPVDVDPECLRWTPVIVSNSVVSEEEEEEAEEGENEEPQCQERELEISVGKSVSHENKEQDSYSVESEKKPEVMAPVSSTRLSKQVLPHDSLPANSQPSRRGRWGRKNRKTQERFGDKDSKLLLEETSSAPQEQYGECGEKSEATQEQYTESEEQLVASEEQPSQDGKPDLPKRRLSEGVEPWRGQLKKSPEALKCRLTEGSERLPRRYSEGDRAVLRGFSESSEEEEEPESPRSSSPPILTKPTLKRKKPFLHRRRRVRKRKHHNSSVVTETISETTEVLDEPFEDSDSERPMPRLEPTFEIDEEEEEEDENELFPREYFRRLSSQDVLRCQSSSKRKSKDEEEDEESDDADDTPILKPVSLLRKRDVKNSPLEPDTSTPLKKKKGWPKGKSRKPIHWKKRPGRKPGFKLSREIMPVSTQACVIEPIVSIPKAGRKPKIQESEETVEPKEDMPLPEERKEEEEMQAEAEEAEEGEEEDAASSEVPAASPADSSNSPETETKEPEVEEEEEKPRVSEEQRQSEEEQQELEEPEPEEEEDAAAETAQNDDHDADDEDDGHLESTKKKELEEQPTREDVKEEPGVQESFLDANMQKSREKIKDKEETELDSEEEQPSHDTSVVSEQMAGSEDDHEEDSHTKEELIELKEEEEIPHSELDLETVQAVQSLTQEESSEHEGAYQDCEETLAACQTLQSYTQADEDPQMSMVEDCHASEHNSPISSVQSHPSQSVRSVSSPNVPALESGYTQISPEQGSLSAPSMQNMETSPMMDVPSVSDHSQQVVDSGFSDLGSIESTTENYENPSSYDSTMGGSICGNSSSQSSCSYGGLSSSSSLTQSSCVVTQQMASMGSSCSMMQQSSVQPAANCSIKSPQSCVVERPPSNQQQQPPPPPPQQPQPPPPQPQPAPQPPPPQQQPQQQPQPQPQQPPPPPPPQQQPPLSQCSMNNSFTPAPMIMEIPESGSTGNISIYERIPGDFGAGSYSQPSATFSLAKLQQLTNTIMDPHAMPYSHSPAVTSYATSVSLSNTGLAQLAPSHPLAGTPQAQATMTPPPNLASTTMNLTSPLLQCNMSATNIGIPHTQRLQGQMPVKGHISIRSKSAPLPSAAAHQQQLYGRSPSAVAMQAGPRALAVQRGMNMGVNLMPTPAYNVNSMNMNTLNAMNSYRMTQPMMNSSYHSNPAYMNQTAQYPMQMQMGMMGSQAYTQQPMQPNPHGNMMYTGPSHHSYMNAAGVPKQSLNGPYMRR
Briefly: HiBit KAT6A Degradation Assessment. The format is cell-based. As to conditions: HeLa cells with HiBit tagged KAT6A, 18 h of treatment, 9-point serial dilution. As for the experimental part:
The degradation activity of compounds was evaluated by measuring levels of KAT6A protein using the HiBiT system. These studies were conducted in HeLa cells with a HiBit tagged KAT6A. Cells were maintained in a 37° C. incubator at 5% CO2 in EMEM (ATCC, 30-2003) supplemented with 10% v/v FBS (Gibco, 26140-079) and 1% penicillin streptomycin. Cells were seeded in 384-well plates at a density of 2,000 cells/well. Compounds dissolved in DMSO were added in 9-point serial dilution. After 18 h of treatment, KAT6A levels were measured using the Nano-Glo® HiBiT Lytic Detection System (Promega catalog number N3030) per manufacturer's instructions. Luminescence signal was measured with a multimode plate reader (Envision 2105, Perkin Elmer). Luminescence values were normalized to background and DMSO controls to quantify KAT6A for each condition. Results were analyzed, and DC50 and Dmax values obtained using a four-parameter logistic curve fit.
`COc1ccc(N2CC3(CCN(C[C@@H]4CCN(c5ccc6c(c5)C(=O)N(C5CCC(=O)NC5=O)C6=O)C4)CC3)C2)c(OC)c1S(=O)(=O)Nc1noc2cc(Cn3cccn3)cc(OC)c12` (stereo partly drawn) [Example 25, N-(6-((1H-Pyrazol-1-yl)methyl)-4-methoxybenzo[d]isoxazol-3-yl)-3-(7-(((3S)-1-(2-(2,6-dioxopiperidin-3-yl)-1,3-dioxoisoindolin-5-yl)pyrrolidin-3-yl)methyl)-2,7-diazaspiro[3.5]nonan-2-yl)-2,6-dimethoxybenzenesulfonamide] registered a DC50 below 10 nM and a Dmax above 75%.
`COc1c(N2CC3(CCN(C[C@@H]4CCN(c5ccc6c(c5)CN(C5CCC(=O)NC5=O)C6=O)C4)CC3)C2)cccc1S(=O)(=O)Nc1noc2cc(Cn3cccn3)cc(OC)c12` (stereo partly drawn) [Example 26, N-(6-((1H-Pyrazol-1-yl)methyl)-4-methoxybenzo[d]isoxazol-3-yl)-3-(7-(((3S)-1-(2-(2,6-dioxopiperidin-3-yl)-1-oxoisoindolin-5-yl)pyrrolidin-3-yl)methyl)-2,7-diazaspirononan-2-yl)-2-methoxybenzenesulfonamide] registered a DC50 below 10 nM and a Dmax above 75%.
For the compound `COc1c(N2CC3(CCN(C[C@H]4CCN(c5ccc6c(c5)CN(C5CCC(=O)NC5=O)C6=O)C4)CC3)C2)cccc1S(=O)(=O)Nc1noc2cc(Cn3cccn3)cc(OC)c12` (stereo partly drawn) [Example 27, N-(6-((1H-Pyrazol-1-yl)methyl)-4-methoxybenzo[d]isoxazol-3-yl)-3-(7-(((3R)-1-(2-(2,6-dioxopiperidin-3-yl)-1-oxoisoindolin-5-yl)pyrrolidin-3-yl)methyl)-2,7-diazaspiro[3.5]nonan-2-yl)-2-methoxybenzenesulfonamide], the half-maximal degradation concentration (DC50) is below 10 nM and the Dmax is above 75%.
Compound `COc1cc(Cn2cccn2)cc2onc(NS(=O)(=O)c3cccc(N4CC5(CCN(C[C@@H]6CCN(c7ccc8c(c7)CN([C@H]7CCC(=O)NC7=O)C8=O)C6)CC5)C4)c3)c12` [Example 28, N-(6-((1H-Pyrazol-1-yl)methyl)-4-methoxybenzo[d]isoxazol-3-yl)-3-(7-(((S)-1-(2-((S)-2,6-dioxopiperidin-3-yl)-1-oxoisoindolin-5-yl)pyrrolidin-3-yl)methyl)-2,7-diazaspiro[3.5]nonan-2-yl)benzenesulfonamide] had a DC50 below 10 nM and a Dmax above 75%.
In turn, `COc1cc(Cn2cccn2)cc2onc(NS(=O)(=O)c3cccc(N4CCN(CC5CCN(c6ccc(C(=O)NC7CCC(=O)NC7=O)nc6)CC5)CC4)c3)c12` (stereo not drawn) [Example 29, 5-(4-((4-(3-(N-(6-((1H-Pyrazol-1-yl)methyl)-4-methoxybenzo[d]isoxazol-3-yl)sulfamoyl)phenyl)piperazin-1-yl)methyl)piperidin-1-yl)-N-(2,6-dioxopiperidin-3-yl) picolinamide] had a Dmax of 25 to 50%.
As for `COc1c(N2CC3(CCN(C[C@@H]4CCN(c5ccc6c(c5)C(=O)N(C5CCC(=O)NC5=O)C6=O)C4)CC3)C2)cccc1S(=O)(=O)Nc1noc2cc(Cn3cccn3)cc(OC)c12` (stereo partly drawn) [Example 30, N-(6-((1H-pyrazol-1-yl)methyl)-4-methoxybenzo[d]isoxazol-3-yl)-3-(7-(((3S)-1-(2-(2,6-dioxopiperidin-3-yl)-1,3-dioxoisoindolin-5-yl)pyrrolidin-3-yl)methyl)-2,7-diazaspiro[3.5]nonan-2-yl)-2-methoxybenzenesulfonamide], the DC50 was below 10 nM and the greatest degradation seen (Dmax) is above 75%.
For `COc1cc(Cn2cccn2)cc2onc(NS(=O)(=O)c3cccc(N4CCN(CC5CCN(c6cccc7c6C(=O)N(C6CCC(=O)NC6=O)C7=O)C5)CC4)c3)c12` (stereo not drawn) [Example 31, N-(6-((1H-Pyrazol-1-yl)methyl)-4-methoxybenzo[d]isoxazol-3-yl)-3-(4-((1-(2-(2,6-dioxopiperidin-3-yl)-1,3-dioxoisoindolin-4-yl)pyrrolidin-3-yl)methyl)piperazin-1-yl)benzenesulfonamide], the DC50 is 100 to 1000 nM and the greatest degradation seen (Dmax) is 50 to 75%.
`COc1cc(Cn2cccn2)cc2onc(NS(=O)(=O)c3cccc(N4CCN(CC5CCN(c6cccc7c6C(=O)N(C6CCC(=O)NC6=O)C7=O)CC5)CC4)c3)c12` (stereo not drawn) [Example 32, 3-[4-[[1-[2-(2,6-Dioxopiperidin-3-yl)-1,3-dioxoisoindol-4-yl]piperidin-4-yl]methyl]piperazin-1-yl]-N-[4-methoxy-6-(pyrazol-1-ylmethyl)-1,2-benzoxazol-3-yl]benzenesulfonamide] had a DC50 of 10 to 100 nM and a Dmax of 50 to 75%.
With `COc1cc(Cn2cccn2)cc2onc(NS(=O)(=O)c3cccc(N4CC5(CCN(CC6CCN(c7ccc8c(c7)CN(C7CCC(=O)NC7=O)C8=O)C6)CC5)C4)c3)c12` (stereo not drawn) [Example 33, N-(6-((1H-pyrazol-1-yl)methyl)-4-methoxybenzo[d]isoxazol-3-yl)-3-(7-((1-(2-(2,6-dioxopiperidin-3-yl)-1-oxoisoindolin-5-yl)pyrrolidin-3-yl)methyl)-2,7-diazaspirononan-2-yl)benzenesulfonamide], the DC50 is below 10 nM and the Dmax was above 75%.
Consider `COc1cc(Cn2cccn2)cc2onc(NS(=O)(=O)c3cccc(N4CC5(CCN(CC6CCN(c7ccc8c(c7)C(=O)N(C7CCC(=O)NC7=O)C8)C6)CC5)C4)c3)c12` (stereo not drawn) [Example 34, N-(6-((1H-pyrazol-1-yl)methyl)-4-methoxybenzo[d]isoxazol-3-yl)-3-(7-((1-(2-(2,6-dioxopiperidin-3-yl)-3-oxoisoindolin-5-yl)pyrrolidin-3-yl)methyl)-2,7-diazaspirononan-2-yl)benzenesulfonamide], for which the DC50 is below 10 nM and the Dmax was 50 to 75%.
In turn, `COc1cc(Cn2cccn2)cc2onc(NS(=O)(=O)c3cccc(N4CC5(CCN(C[C@H]6CCN(c7ccc8c(c7)C(=O)N(C7CCC(=O)NC7=O)C8=O)C6)CC5)C4)c3)c12` (stereo partly drawn) [Example 35, N-(6-((1H-pyrazol-1-yl)methyl)-4-methoxybenzo[d]isoxazol-3-yl)-3-(7-(((3R)-1-(2-(2,6-dioxopiperidin-3-yl)-1,3-dioxoisoindolin-5-yl)pyrrolidin-3-yl)methyl)-2,7-diazaspiro[3.5]nonan-2-yl)benzenesulfonamide] yielded a DC50 below 10 nM and a Dmax of 50 to 75%.
The compound `COc1cc(Cn2cccn2)cc2onc(NS(=O)(=O)c3cccc(N4CCC(NC[C@@H]5CCN(c6ccc7c(c6)CN([C@H]6CCC(=O)NC6=O)C7=O)C5)CC4)c3)c12` [Example 36, N-(6-((1H-pyrazol-1-yl)methyl)-4-methoxybenzo[d]isoxazol-3-yl)-3-(4-((((S)-1-(2-((S)-2,6-dioxopiperidin-3-yl)-1-oxoisoindolin-5-yl)pyrrolidin-3-yl)methyl)amino)piperidin-1-yl)benzenesulfonamide] displayed a DC50 of 10 to 100 nM and a Dmax above 75%.
The like results for `COc1cc(Cn2cccn2)cc2onc(NS(=O)(=O)c3cccc(N(C)C4CCN(C[C@@H]5CCN(c6ccc7c(c6)CN([C@H]6CCC(=O)NC6=O)C7=O)C5)CC4)c3)c12` [Example 37, N-(6-((1H-Pyrazol-1-yl)methyl)-4-methoxybenzo[d]isoxazol-3-yl)-3-((1-(((S)-1-(2-((S)-2,6-dioxopiperidin-3-yl)-1-oxoisoindolin-5-yl)pyrrolidin-3-yl)methyl)piperidin-4-yl)(methyl)amino)benzenesulfonamide] were, in that order, below 10 nM and 50 to 75%.
`COc1cc(Cn2cccn2)cc2onc(NS(=O)(=O)c3cccc(NC4CCN(C[C@@H]5CCN(c6ccc7c(c6)CN([C@H]6CCC(=O)NC6=O)C7=O)C5)CC4)c3)c12` [Example 38, N-(6-((1H-Pyrazol-1-yl)methyl)-4-methoxybenzo[d]isoxazol-3-yl)-3-((1-(((S)-1-(2-((S)-2,6-dioxopiperidin-3-yl)-1-oxoisoindolin-5-yl)pyrrolidin-3-yl)methyl)piperidin-4-yl)amino)benzenesulfonamide] displayed a DC50 of 10 to 100 nM and a Dmax of 50 to 75%.
For `COc1cc(Cn2cccn2)cc2onc(NS(=O)(=O)c3cccc(N4CCC5(CCN(C[C@@H]6CCN(c7ccc8c(c7)CN(C7CCC(=O)NC7=O)C8=O)C6)CC5)CC4)c3)c12` (stereo partly drawn) [Example 39, N-(6-((1H-Pyrazol-1-yl)methyl)-4-methoxybenzo[d]isoxazol-3-yl)-3-(9-(((3S)-1-(2-(2,6-dioxopiperidin-3-yl)-1-oxoisoindolin-5-yl)pyrrolidin-3-yl)methyl)-3,9-diazaspiro[5.5]undecan-3-yl)benzenesulfonamide], the DC50 was below 10 nM and the greatest degradation seen (Dmax) is above 75%.
The like results for `COc1cc(Cn2cccn2)cc2onc(NS(=O)(=O)c3cccc(N4C[C@@H]5CN(C[C@@H]6CCN(c7ccc8c(c7)CN([C@H]7CCC(=O)NC7=O)C8=O)C6)C[C@H]5C4)c3)c12` [Example 40, N-(6-((1H-Pyrazol-1-yl)methyl)-4-methoxybenzo[d]isoxazol-3-yl)-3-((3aS,6aS)-5-(((S)-1-(2-((S)-2,6-dioxopiperidin-3-yl)-1-oxoisoindolin-5-yl)pyrrolidin-3-yl)methyl)hexahydropyrrolo[3,4-c]pyrrol-2(1H)-yl)benzenesulfonamide] were, in that order, below 10 nM and above 75%.
The like results for `COc1ccc(N2CC3(CCN(CC4CCN(c5ccc6c(c5)C(=O)N(C5CCC(=O)NC5=O)C6=O)C4)CC3)C2)cc1S(=O)(=O)Nc1noc2cc(Cn3cccn3)cc(OC)c12` (stereo not drawn) [Example 41, N-(6-((1H-pyrazol-1-yl)methyl)-4-methoxybenzo[d]isoxazol-3-yl)-5-(7-((1-(2-(2,6-dioxopiperidin-3-yl)-1,3-dioxoisoindolin-5-yl)pyrrolidin-3-yl)methyl)-2,7-diazaspiro[3.5]nonan-2-yl)-2-methoxybenzenesulfonamide] were, in that order, below 10 nM and 50 to 75%.

The values are drawn from US20230416240A1, “KAT6 TARGETING COMPOUNDS” (Prelude Therapeutics Incorporated, priority 2022, published 2023).
